pIC50: −log10 of the molar value.
How the values were obtained:
[1] = target: T1, human androgen receptor (Homo sapiens, UniProt P10275, T878A); experiment: Human Androgen Receptor Binding (radioligand binding, LnCap prostate cancer cell line); conditions: LnCap cells, displacement of [^3H]-methyltrienolone, 2 hours at 37° C.; read-out: AR LNCaP
T1 construct: endogenously expressed human androgen receptor using the LnCap prostate cancer cell line; endogenous in cells; host or cells: LNCaP prostate cancer cell line (whole cells)
T1 sequence (P10275 1-920 T878A): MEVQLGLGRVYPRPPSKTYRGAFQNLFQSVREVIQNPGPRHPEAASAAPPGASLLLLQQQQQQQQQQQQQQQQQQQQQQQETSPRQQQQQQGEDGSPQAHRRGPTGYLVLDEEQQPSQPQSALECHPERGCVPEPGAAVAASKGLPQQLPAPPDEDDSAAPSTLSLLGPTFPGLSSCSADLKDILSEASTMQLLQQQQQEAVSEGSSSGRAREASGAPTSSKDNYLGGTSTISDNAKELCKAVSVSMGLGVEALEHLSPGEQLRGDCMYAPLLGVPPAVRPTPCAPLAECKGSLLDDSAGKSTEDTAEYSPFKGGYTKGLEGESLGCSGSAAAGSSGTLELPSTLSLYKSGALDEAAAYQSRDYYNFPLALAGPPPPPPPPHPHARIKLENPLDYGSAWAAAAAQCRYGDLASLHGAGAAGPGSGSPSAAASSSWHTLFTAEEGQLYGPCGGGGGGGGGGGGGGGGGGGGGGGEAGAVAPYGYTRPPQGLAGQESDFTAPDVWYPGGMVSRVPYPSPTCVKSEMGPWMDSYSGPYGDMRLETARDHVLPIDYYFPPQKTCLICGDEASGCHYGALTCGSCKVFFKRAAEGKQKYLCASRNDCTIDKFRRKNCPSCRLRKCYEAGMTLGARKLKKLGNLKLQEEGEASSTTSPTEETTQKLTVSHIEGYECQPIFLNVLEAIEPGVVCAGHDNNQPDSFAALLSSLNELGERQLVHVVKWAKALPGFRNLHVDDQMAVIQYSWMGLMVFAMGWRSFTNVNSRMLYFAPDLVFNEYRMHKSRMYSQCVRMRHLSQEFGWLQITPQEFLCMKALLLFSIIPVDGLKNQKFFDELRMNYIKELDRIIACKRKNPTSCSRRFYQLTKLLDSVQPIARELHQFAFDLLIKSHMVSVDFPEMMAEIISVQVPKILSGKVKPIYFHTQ
Procedure, shortened: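 Whole-cell displacement of [3H]-methyltrienolone from endogenous AR (T878A) in LnCap cells, in RPMI with 0.1% BSA and triamcinolone acetonide. Compounds 10 μM to 0.1 nM in 1:10 steps, 2 h at 37 °C; cells washed, SDS-lysed, bound radioactivity by scintillation counting for IC50.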

[2] = target: T2, Human Glucocorticoid Receptor (Homo sapiens, UniProt P04150); experiment: Competition Binding in IM-9 Human Glucocorticoid Receptor (GR IM-9); conditions: cytosol from IM-9 cell line, 1.5 nM [3H]-Dexamethasone, 4° C. for 6 hours
T2 construct: endogenous in cells; host or cells: cytosol from IM-9 cell line
T2 sequence (P04150 1-777): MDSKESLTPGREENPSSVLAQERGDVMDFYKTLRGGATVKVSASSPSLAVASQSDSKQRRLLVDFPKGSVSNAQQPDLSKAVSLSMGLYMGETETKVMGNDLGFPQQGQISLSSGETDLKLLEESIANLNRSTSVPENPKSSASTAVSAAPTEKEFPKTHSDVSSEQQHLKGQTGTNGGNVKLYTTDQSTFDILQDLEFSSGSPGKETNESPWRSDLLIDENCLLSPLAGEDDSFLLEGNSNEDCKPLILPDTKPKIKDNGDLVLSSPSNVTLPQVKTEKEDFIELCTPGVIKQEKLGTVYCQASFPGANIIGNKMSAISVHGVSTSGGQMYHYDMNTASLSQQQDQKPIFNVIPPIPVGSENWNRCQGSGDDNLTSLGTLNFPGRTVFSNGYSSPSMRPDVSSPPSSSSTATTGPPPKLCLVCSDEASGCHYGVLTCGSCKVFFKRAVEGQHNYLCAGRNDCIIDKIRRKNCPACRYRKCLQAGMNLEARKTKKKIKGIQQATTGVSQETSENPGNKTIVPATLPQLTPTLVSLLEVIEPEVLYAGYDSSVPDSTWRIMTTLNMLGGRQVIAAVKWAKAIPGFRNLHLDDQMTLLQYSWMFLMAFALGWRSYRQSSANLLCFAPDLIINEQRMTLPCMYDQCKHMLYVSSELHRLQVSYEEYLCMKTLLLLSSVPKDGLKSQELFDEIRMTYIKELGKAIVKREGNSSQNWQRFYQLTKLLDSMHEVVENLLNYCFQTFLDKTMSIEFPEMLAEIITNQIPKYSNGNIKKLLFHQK
Procedure, shortened: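 Radioligand competition using 100 μg IM-9 cell cytosol and 1.5 nM [3H]-dexamethasone, incubated 6 h at 4° C in TES/molybdate buffer, pH 7.4. Filtration on PEI-treated GF/B filters, scintillation counting; nonspecific binding defined with 10 μM triamcinolone.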

Structure (SMILES) | pIC50 [1] | pIC50 [2]
CC(=O)C1=C(C)NC(C)=C(C(=O)OCc2ccccc2)C1c1csc2ccccc12 (stereo not drawn) [Example B6, Benzyl 5-acetyl-4-(benzo[b]thiophen-3-yl)-2,6-dimethyl-1,4-dihydro-pyridine-3-carboxylate] | ≤ 6.00 | 6.00 to 7.00
CC1=C(C(=O)OC2CC2)C(c2csc3c(C#N)cccc23)C(C(=O)OCC2CC2)=C(N)N1 (stereo not drawn) [Example D37, 5-Cyclopropyl 3-(cyclopropylmethyl) 2-amino-4-(7-cyanobenzo[b]thiophen-3-yl)-6-methyl-1,4-dihydropyridine-3,5-dicarboxylate] | 6.00 to 7.00 | > 7.00
C#CCOC(=O)C1=C(C)NC(N)=C(C(=O)OCC2CC2)C1c1csc2c(C#N)cccc12 (stereo not drawn) [Example D47, 3-(Cyclopropylmethyl) 5-(prop-2-yn-1-yl) 2-amino-4-(7-cyanobenzo[b]thiophen-3-yl)-6-methyl-1,4-dihydropyridine-3,5-dicarboxylate] | 6.00 to 7.00 | > 7.00
COC(=O)C1=C(CO)NC(C2CC2)=C(C(=O)OC)C1c1csc2c(C#N)cccc12 (stereo not drawn) [Example C118, Dimethyl 4-(7-cyanobenzo[b]thiophen-3-yl)-2-cyclopropyl-6-(hydroxymethyl)-1,4-dihydropyridine-3,5-dicarboxylate] | > 7.00 | > 7.00
COC(=O)C1=C(C2CC2)NC(C)=C(C(C)=O)C1c1csc2c(Br)cccc12 (stereo not drawn) [Example J26, Methyl 5-acetyl-4-(7-bromobenzo[b]thiophen-3-yl)-2-cyclopropyl-6-methyl-1,4-dihydropyridine-3-carboxylate] | > 7.00 | > 7.00
COC(=O)C1=C(C)NC(N)=C(C(=O)OC2CCCC2)C1c1csc2c(C#N)cccc12 (stereo not drawn) [Example D27, 3-Cyclopentyl 5-methyl 2-amino-4-(7-cyanobenzo[b]thiophen-3-yl)-6-methyl-1,4-dihydropyridine-3,5-dicarboxylate] | 6.00 to 7.00 | > 7.00

From patent US11453660B2, “Androgen receptor and glucocorticoid receptor modulators” (ONCOSTELLAE, S.L., priority 2017, dated 2022)
